Measurements as given in paper PMC11335300, “The novel function of an orphan pheromone receptor reveals the sensory specializations of two potential distinct types of sex pheromones in noctuid moth” (Cellular and Molecular Life Sciences: CMLS, 2024).

Molecular target: T1, HarmOR11/Orco (Helicoverpa armigera, UniProt A0A7D5JUD6)
T1 construct: full-length HarmOR11 and HarmOrco cloned from antennal cDNA into pT7Ts; cRNAs co-injected in Xenopus laevis oocytes; heteromeric channel, exact stoichiometry unknown (2:2 only modelled); with Odorant receptor coreceptor
T1 sequence (A0A7D5JUD6 1-431): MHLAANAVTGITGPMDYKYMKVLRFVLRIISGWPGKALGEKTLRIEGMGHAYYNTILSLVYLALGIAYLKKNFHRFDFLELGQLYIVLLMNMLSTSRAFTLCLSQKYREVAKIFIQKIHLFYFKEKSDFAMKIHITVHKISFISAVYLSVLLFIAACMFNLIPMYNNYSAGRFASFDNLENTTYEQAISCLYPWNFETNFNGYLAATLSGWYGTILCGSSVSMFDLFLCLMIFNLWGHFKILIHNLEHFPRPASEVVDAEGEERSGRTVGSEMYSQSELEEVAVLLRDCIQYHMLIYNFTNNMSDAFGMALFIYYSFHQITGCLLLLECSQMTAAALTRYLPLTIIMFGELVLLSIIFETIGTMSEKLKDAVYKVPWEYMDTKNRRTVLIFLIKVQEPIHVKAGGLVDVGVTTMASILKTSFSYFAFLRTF
T1 sequence (E5KJL4 1-473 partner): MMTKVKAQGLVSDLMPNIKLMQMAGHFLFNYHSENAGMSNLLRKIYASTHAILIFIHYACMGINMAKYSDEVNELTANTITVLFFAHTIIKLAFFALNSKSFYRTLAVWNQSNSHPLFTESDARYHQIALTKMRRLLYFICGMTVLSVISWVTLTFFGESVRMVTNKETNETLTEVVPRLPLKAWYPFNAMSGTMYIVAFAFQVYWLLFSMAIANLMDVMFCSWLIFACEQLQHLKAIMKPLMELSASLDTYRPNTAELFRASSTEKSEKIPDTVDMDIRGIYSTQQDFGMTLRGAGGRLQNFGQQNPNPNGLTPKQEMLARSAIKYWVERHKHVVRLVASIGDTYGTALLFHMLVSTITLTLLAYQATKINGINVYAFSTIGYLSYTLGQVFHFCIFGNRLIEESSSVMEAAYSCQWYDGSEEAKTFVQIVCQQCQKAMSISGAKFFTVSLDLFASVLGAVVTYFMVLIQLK
Test: two-electrode voltage clamp of Xenopus oocytes co-expressing HarmOR11/Orco
Type: cell-based
Settings: agonist; holding potential -80 mV; Ringer's buffer pH 7.6; from DMSO stock; unit printed as mol (concentration meant)

CC/C=C\C/C=C\C/C=C\CCCCCCCCCCC [3Z,6Z,9Z-21:H, 3Z,6Z,9Z-heneicosatriene]
EC50: 1.637e-05 mol
